Data from ChEMBL document CHEMBL1142950, “Zooxanthellamide D, a polyhydroxy polyene amide from a marine dinoflagellate, and chemotaxonomic perspective of the Symbiodinium polyols” (J Nat Prod, 2007).
pIC50: −log10 of the molar value. Calls of active or inactive are those of the source. No cut-off for these calls is given here.

Columns and labels:
A-431 = experiment: Cytotoxicity against human A431 cells; format: cell-based
[1] = Cytotoxicity against human Nakata cells; format: cell-based
Phytophthora capsici = experiment: Antifungal activity against Phytophthora capsici by paper disk assay; format: functional, organism-based

In the case of `C=CC(=C)CC(=C)/C(C)=C/CC/C=C/C=C(\C)C[C@@H]1O[C@@H](C(O)C(O)C(O)/C(C)=C/C=C/CNC(=O)/C=C/C=C/C(O)CC(O)C(O)C[C@H]2O[C@@H]([C@H]3C[C@H](O)[C@H](O)[C@@](C)(CO)O3)[C@H](O)C(O)[C@@H]2O)[C@@H](O)[C@H](O)[C@H]1O` (stereo partly drawn) [ZOOXANTHELLAMIDE D], the pIC50 (A-431) was 5.35, the pIC50 [1] was 5.18 and the Activity (Phytophthora capsici) was “inactive”.
